The values below come from publication PMC8179539, “Query-guided protein–protein interaction inhibitor discovery” (Chemical Science, 2021).

Test [1] concerns the target p53/hDM2 (Homo sapiens, UniProt Q00987). Put plainly: competition fluorescence anisotropy assay, displacement of p53 15-31 Flu from hDM2. The format is binding. Conditions: for ligand efficiency: LE = 1.4 × pIC50/nHA, from p53/hDM2 fluorescence anisotropy IC50.
In test [2] the target is BID/MCL-1 (Homo sapiens, UniProt Q07820). Conditions: 200 nM MCL-1, 50 nM FITC-Ahx-NOXA-B tracer (Fig. S10).
The target of test [3] is T1, GKAP/SHANK1-PDZ (Homo sapiens, UniProt Q9Y566).
T1 construct: Shank 1 PDZ domain (656-762) was expressed and purified as described; made in house
T1 sequence (Q9Y566 656-762): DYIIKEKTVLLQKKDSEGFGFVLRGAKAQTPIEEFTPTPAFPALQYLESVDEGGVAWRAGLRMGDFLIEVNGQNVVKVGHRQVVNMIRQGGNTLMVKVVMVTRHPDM
The test can be described thus: fluorescence anisotropy competition assay GKAP/SHANK1-PDZ. As to conditions: for IC50: FITC-GKAP 50 nM, SHANK1-PDZ 1 μM, pH 7.4, 20 mM Tris, 150 mM NaCl, 0.01% Triton-X-100. The format is binding.

The target in test [4] is SHANK1-PDZ (Homo sapiens, UniProt Q9Y566). The test can be described thus: biochemical.
The mark [5] stands for this setting: Table S2, SAR competition assays, Plate Reader II, read-out: IC50.
Where [6] appears, read: fluorescence anisotropy competition, 150 nM hDM2, 25 nM p53 15-31 Flu, 40 mM phosphate pH 7.4, 200 mM NaCl, 0.02 mg/ml BSA, read-out: IC50.
[7] abbreviates: Table S2, SAR competition assays, Plate Reader II, * lower anisotropy observed, attributed to solubility causing assay interference (7a, 7b, 7c), read-out: IC50.
Setting [8] is: Fig. 4b, same assay, unit inferred, † non-specific interactions observed (11c), read-out: IC50 (Fig. 4b, numbers inside wedges).
Where [9] appears, read: Fig. 4b, fluorescence anisotropy competition: 150 nM hDM2 and p53 15-31 Flu, 40 mM phosphate, pH 7.4, 200 mM NaCl, 0.02 mg/ml BSA, > 150 μM, read-out: IC50 (Fig. 4b).

Where “and” joins values, the source holds several entries; their conditions need not be identical. Equal entries are not always repeated. Where two headings read alike, the source gives them in different places.

With `CC(C(=O)NCCc1ccccn1)C(c1ccc(Cl)s1)c1c[nH]c2ccc(Cl)cc12` (single isomer, unassigned; (+)) [(+)-anti-10], the IC50 in test [1] (setting [5]) was 2.9 ± 0.4 µM; in test [1] (setting [6]) it was 2.9 µM. In the same order, the values of `CC(C(=O)NCCc1ccccn1)C(c1ccc(Cl)s1)c1c[nH]c2ccc(Cl)cc12` (single isomer, unassigned; (-)) [(−)-anti-10] are 4.6 ± 0.6 µM and 4.6 µM.

For `O=C(CC(c1ccc(Cl)s1)c1c[nH]c2ccc(Cl)cc12)NC1CC1c1ccccc1` (stereo not drawn) [7a], the IC50 in test [1] (setting [7]) amounted to 1.2 ± 1 µM.

Regarding `O=C(CC(c1ccc(Cl)s1)c1c[nH]c2ccc(Cl)cc12)NCCc1ccccc1` (stereo not drawn) [7b], the IC50 in test [1] (setting [7]) was 13 ± 2 µM. As to `O=C(CC(c1ccc(Cl)s1)c1c[nH]c2ccc(Cl)cc12)NCc1ccccc1` (stereo not drawn) [7c], the half-inhibitory concentration (IC50) in test [1] (setting [7]) was found to be 5 ± 2 µM. In test [1] (competition anisotropy, SAR discussion), the “p53/hDM2 inhibitory activity in words (SAR)” value is recorded as “loss of activity”.

For the compound `COCCNC(=O)CC(c1ccc(Cl)s1)c1c[nH]c2ccc(Cl)cc12` (stereo not drawn) [7d], the 50% inhibitory concentration (IC50) in test [1] (setting [7]) is over 200 µM. As for `O=C(CC(c1ccc(Cl)s1)c1c[nH]c2cc(Cl)ccc12)NCCc1ccccn1` (stereo not drawn) [8a], the IC50 in test [1] (setting [7]) worked out at 10 ± 2 µM; in test [1] (setting [6]), 6 µM. Regarding `O=C(CC(c1ccc(Cl)s1)c1c[nH]c2cc(Cl)ccc12)NCCc1ccccc1` (stereo not drawn) [8b], the half-maximal inhibitory concentration (IC50) in test [1] (setting [7]) came out at 18 ± 11 µM. On the same count and under the same terms, as for `COCCNC(=O)CC(c1ccc(Cl)s1)c1c[nH]c2cc(Cl)ccc12` (stereo not drawn) [8c], the figure is 86 ± 29 µM; as for `O=C(CC(c1ccccc1)c1c[nH]c2ccc(Cl)cc12)NCCc1ccccn1` (stereo not drawn) [9a], over 200 µM. The same measure, in the same setting: as for `O=C(CC(c1ccccc1)c1c[nH]c2ccc(Cl)cc12)NCCc1ccccc1` (stereo not drawn) [9b], the figure is over 200 µM. On to `COCCNC(=O)CC(c1ccccc1)c1c[nH]c2ccc(Cl)cc12` (stereo not drawn) [9d], for which the IC50 in test [1] (setting [7]) is over 200 µM. As to `O=C(CC(c1ccc(Cl)s1)c1c(Br)[nH]c2cc(Cl)ccc12)NCCc1ccccn1` (stereo not drawn) [11a], the figures for the IC50 in test [1] (setting [8]), in test [1] (setting [5]) and in test [1] (setting [6]) were 2 µM, 1.7 ± 0.2 µM and 1 µM, respectively. The compound also returned a ligand efficiency in test [1] of 0.28. With `O=C(CC(c1ccc(Cl)s1)c1c(C(=O)O)[nH]c2ccc(Cl)cc12)NCCc1ccccn1` (stereo not drawn) [11b], the half-maximal inhibitory concentration (IC50) in test [1] (setting [8]) stood at 3 µM; in test [1] (setting [5]), 2.9 ± 0.2 µM. The same compound yielded a ligand efficiency in test [1] of 0.26. As for `CCOC(=O)CCNC(=O)c1[nH]c2ccc(Cl)cc2c1C(CC(=O)NCCc1ccccn1)c1ccc(Cl)s1` (stereo not drawn) [11c], the IC50 in test [1] (setting [8]) worked out at 3 µM; in test [1] (setting [5]) it was 3.2 ± 0.7 µM. As for `O=C(CC(c1ccc(Cl)s1)c1c(Br)[nH]c2ccc(Cl)cc12)NCCc1ccccn1` (stereo not drawn) [11d], the IC50 in test [1] (setting [5]) was 12 ± 9 µM. Still for that read-out and setting: with `O=C(O)CCNC(=O)c1[nH]c2ccc(Cl)cc2c1C(CC(=O)NCCc1ccccn1)c1ccc(Cl)s1` (stereo not drawn) [11e] the figure was 14 ± 2 µM.

In the case of `NCCNC(=O)c1[nH]c2ccc(Cl)cc2c1C(CC(=O)NCCc1ccccn1)c1ccc(Cl)s1` (stereo not drawn) [11f], the IC50 in test [1] (setting [5]) worked out at 25 ± 4 µM; in test [1] (setting [6]) it was 25 µM. For `CC(C)(C)OC(=O)NCCNC(=O)c1[nH]c2ccc(Cl)cc2c1C(CC(=O)NCCc1ccccn1)c1ccc(Cl)s1` (stereo not drawn) [11g], the half-inhibitory concentration (IC50) in test [1] (setting [5]) is over 200 µM. For `O=C(CC(c1ccc(Cl)s1)c1c(C(=O)NCc2ccccc2)[nH]c2ccc(Cl)cc12)NCCc1ccccn1` (stereo not drawn) [11h], the 50% inhibitory concentration (IC50) in test [1] (setting [5]) is over 200 µM. Turning to `CC(C)CNC(=O)c1[nH]c2ccc(Cl)cc2c1C(CC(=O)NCCc1ccccn1)c1ccc(Cl)s1` (stereo not drawn) [11i], in test [1] (setting [5]), the 50% inhibitory concentration (IC50) was over 200 µM. Take `O=C(CC(c1ccc(Cl)s1)c1c[nH]c2ccc(Cl)cc12)NCCc1ccccn1` (stereo not drawn) [A1]: the IC50 was 8 µM in test [1] (setting [8]); 7.9 ± 0.9 µM in test [1] (setting [7]); 7.9 µM and 8 µM in test [1] (setting [6]). The compound further came in with a ligand efficiency in test [1] of 0.24. Besides, the “inhibition in FA competition assay for BID/MCL-1” value in test [2] is given as “no inhibition”. Compound `NS(=O)(=O)c1ccc2c(c1)[C@@H]1C=CC[C@@H]1[C@H](C(=O)O)N2` [Z-1] gave an IC50 in test [3] of 390 µM. For the same compound, the “ligand efficiency (LE)” value in test [3] (from GKAP/SHANK1-PDZ fluorescence anisotropy IC50) was 0.24.

In test [3], `O=C(O)c1ccc([N+](=O)[O-])c2c1NC(C(=O)O)[C@H]1CC=C[C@@H]21` (stereo partly drawn) [Z-2, reference compound] came in with an IC50 of about 110 µM. In test [1], `CC(C(=O)NCCc1ccccn1)C(c1ccc(Cl)s1)c1c[nH]c2ccc(Cl)cc12` (stereo not drawn) [anti-10] displayed a ligand efficiency of 0.26. The results for the IC50 in test [1] (setting [5]) and in test [1] (setting [6]) were 3.1 ± 0.4 µM and 3.1 µM, respectively.

For the compound `CC(C)(C(=O)NCCc1ccccn1)C(c1ccc(Cl)s1)c1c[nH]c2ccc(Cl)cc12` (stereo not drawn) [compound 12], the IC50 in test [1] (setting [9]) is 8 µM; in test [1] (setting [5]), 8 ± 4 µM; in test [1] (setting [6]) it was about 8 µM. With `CC(C(=O)N1CCC(c2ccccn2)C1)C(c1ccc(Cl)s1)c1c[nH]c2cc(Cl)ccc12` (stereo not drawn) [compound 13], the values for the IC50 in test [1] (setting [9]), in test [1] (setting [5]) and in test [1] (setting [6]) were 1 µM, 1.2 ± 0.4 µM and 1.2 µM, respectively. In the same order, the values of `O=C(CC(c1ccc(Cl)s1)c1c(C(=O)O)[nH]c2ccc(Cl)cc12)NC1CC1c1ccccc1` (stereo not drawn) [compound 14] are 2 µM, 2.2 ± 0.5 µM and 2.2 µM. Turning to `CC(C(=O)NCCc1ccccn1)C(c1ccc(Cl)s1)c1c[nH]c2ccc(Cl)cc12` (stereo not drawn) [syn-10], in test [1] (setting [5]), the IC50 was found to be 21 ± 14 µM. Compound “Ac-EAQTRF-OH [L6F GKAP, Ac-Glu-Ala-Gln-Thr-Arg-Phe-CO2H]” displayed a Kd in test [4] of 5 µM.
